Experimental data taken from patent US20100173777A1, “Piperazine Compounds Having Herbicidal Action” (BASF SE, priority 2007, published 2010).

Assays:
Assay type in all cases: in vivo
[1] = system: AMARE (Amaranthus retoflexus); assay: greenhouse post-emergence herbicidal test, AMARE; details: 1.0 kg/ha, scale from 0 to 100
Excerpt: (§1) The culture containers used were plastic flowerpots containing loamy sand with approximately 3.0% of humus as the substrate. The seeds of the test plants were sown separately for each species.
(§2) For the post-emergence treatment, the test plants were first grown to a height of 3 to 15 cm, depending on the plant habit, and only then treated with the active ingredients which had been suspended or emulsified in water. For this purpose, the test plants were either sown directly and grown in the same containers, or they were first grown separately as seedlings and transplanted into the test containers a few days prior to treatment.
(§3) Depending on the species, the plants were kept at 10-25° C. or 20-35° C. The test period extended over 2 to 4 weeks. During this time, the plants were tended, and their response to the individual treatments was evaluated.
(§4) Evaluation was carried out using a scale from 0 to 100. 100 means no emergence of the plants, or complete destruction of at least the aerial moieties, and 0 means no damage, or normal course of growth. A good herbicidal activity is given at values of at least 70 and a very good herbicidal activity is given at values of at least 85.

[2] = system: SETFA (Setaria faberi); assay: greenhouse pre-emergence herbicidal test, SETFA; details: 1.0 kg/ha, scale from 0 to 100
Excerpt: as §1
(§5) For the pre-emergence treatment, the active ingredients, which had been suspended or emulsified in water, were applied directly after sowing by means of finely distributing nozzles. The containers were irrigated gently to promote germination and growth and subsequently covered with transparent plastic hoods until the plants had rooted. This cover caused uniform germination of the test plants, unless this has been impaired by the active ingredients.
as §3, §4

[3] = system: ECHCG (Echinochloa crus-galli); assay: greenhouse post-emergence herbicidal test, ECHCG; details: scale from 0 to 100
Excerpt: as §1, §2, §3, §4

[4] = system: CHEAL (Chenopodium album); assay: greenhouse post-emergence herbicidal test, CHEAL; details: 1.0 kg/ha, scale from 0 to 100
Excerpt: as §1, §2, §3, §4

[5] = system: SETVI (Setaria viridis); assay: greenhouse post-emergence herbicidal test, SETVI; details: 1.0 kg/ha, scale from 0 to 100
Excerpt: as §1, §2, §3, §4

[6] = system: APESV (Apera spica-venti); assay: greenhouse pre-emergence herbicidal test, APESV; details: scale from 0 to 100
Excerpt: as §1, §5, §3, §4

[7] = system: ALOMY (Alopecurus myosuroides); assay: greenhouse pre-emergence herbicidal test, ALOMY; details: scale from 0 to 100
Excerpt: as §1, §5, §3, §4

[8] = system: AMARE (Amaranthus retoflexus); assay: greenhouse pre-emergence herbicidal test, AMARE; details: 1.0 kg/ha, scale from 0 to 100
Excerpt: as §1, §5, §3, §4

[9] = system: ECHCG (Echinochloa crus-galli); assay: greenhouse pre-emergence herbicidal test, ECHCG; details: scale from 0 to 100
Excerpt: as §1, §5, §3, §4

[10] = system: ALOMY (Alopecurus myosuroides); assay: greenhouse post-emergence herbicidal test, ALOMY; details: 0.5 kg/ha, scale from 0 to 100
Excerpt: as §1, §2, §3, §4

[11] = system: APESV (Apera spica-venti); assay: greenhouse post-emergence herbicidal test, APESV; details: 0.5 kg/ha, scale from 0 to 100
Excerpt: as §1, §2, §3, §4

CN1C(=O)C(C)(Cc2ccccc2)N(C)C(=O)C1Cc1ccccc1C#N (single isomer, unassigned) [Example 1 (main isomer 1), 2-[5-Benzyl-1,4,5-trimethyl-3,6-dioxopiperazine-2-ylmethyl]benzonitrile]
herbicidal activity against AMARE [1]: very good herbicidal activity (a very good herbicidal activity is given at values of at least 85) | herbicidal activity against SETFA [2]: very good herbicidal activity (a very good herbicidal activity is given at values of at least 85) | herbicidal activity against ECHCG ([3]; 1.0 kg/ha): very good herbicidal activity (a very good herbicidal activity is given at values of at least 85) | herbicidal activity against CHEAL [4]: very good herbicidal activity (a very good herbicidal activity is given at values of at least 85) | herbicidal activity against SETVI [5]: very good herbicidal activity (a very good herbicidal activity is given at values of at least 85) | herbicidal activity against APESV ([6]; 1.0 kg/ha): very good herbicidal activity (a very good herbicidal activity is given at values of at least 85) | herbicidal activity against ALOMY ([7]; 1.0 kg/ha): very good herbicidal activity (a very good herbicidal activity is given at values of at least 85) | herbicidal activity against AMARE [8]: very good herbicidal activity (a very good herbicidal activity is given at values of at least 85) | herbicidal activity against ECHCG ([9]; 1.0 kg/ha): very good herbicidal activity (a very good herbicidal activity is given at values of at least 85)

CN1C(=O)C(C)(Cc2ccccc2)N(C)C(=O)C1Cc1ccccc1C#N (single isomer, unassigned) [Example 1 (minor isomer 2), 2-[5-Benzyl-1,4,5-trimethyl-3,6-dioxopiperazine-2-ylmethyl]benzonitrile]
herbicidal activity against ALOMY [10]: very good herbicidal activity (a very good herbicidal activity is given at values of at least 85) | herbicidal activity against ECHCG ([3]; 0.5 kg/ha): very good herbicidal activity (a very good herbicidal activity is given at values of at least 85) | herbicidal activity against APESV ([6]; 0.5 kg/ha): very good herbicidal activity (a very good herbicidal activity is given at values of at least 85) | herbicidal activity against ALOMY ([7]; 0.5 kg/ha): very good herbicidal activity (a very good herbicidal activity is given at values of at least 85) | herbicidal activity against APESV [11]: very good herbicidal activity (a very good herbicidal activity is given at values of at least 85) | herbicidal activity against ECHCG ([9]; 0.5 kg/ha): very good herbicidal activity (a very good herbicidal activity is given at values of at least 85)
